Results on 26 compounds are retold here after patent publication US9273057B2 (Bristol-Myers Squibb Company, priority 2012, dated 2016).

SMILES strings stand for the structures. Structures can show the parent of a compound that is named as a salt.

Chain of CK2A1 (CK2α/β) (P68400 whole entry, species assumed): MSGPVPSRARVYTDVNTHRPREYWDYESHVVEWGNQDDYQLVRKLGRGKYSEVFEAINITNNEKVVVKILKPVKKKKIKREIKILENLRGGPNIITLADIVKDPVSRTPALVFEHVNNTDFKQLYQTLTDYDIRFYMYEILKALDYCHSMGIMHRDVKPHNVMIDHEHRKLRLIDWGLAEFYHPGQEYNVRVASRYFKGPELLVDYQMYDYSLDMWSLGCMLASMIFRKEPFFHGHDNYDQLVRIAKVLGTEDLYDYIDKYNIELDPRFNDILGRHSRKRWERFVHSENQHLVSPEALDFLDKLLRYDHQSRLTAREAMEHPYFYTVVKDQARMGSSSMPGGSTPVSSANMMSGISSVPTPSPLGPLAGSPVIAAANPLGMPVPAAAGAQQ
Chain of CK2A1 (CK2α/β) (P67870 whole entry partner, species assumed): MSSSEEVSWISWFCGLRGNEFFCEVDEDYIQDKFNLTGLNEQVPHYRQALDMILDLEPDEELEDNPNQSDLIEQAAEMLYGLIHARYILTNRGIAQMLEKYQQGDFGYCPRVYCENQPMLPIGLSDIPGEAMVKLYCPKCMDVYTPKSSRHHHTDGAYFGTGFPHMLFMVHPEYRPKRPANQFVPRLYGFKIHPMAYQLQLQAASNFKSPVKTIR

The assay addresses CK2A1 (CK2α/β) (Homo sapiens, UniProt P68400). In words: CK2 kinase assay, CK2A1 (CK2α/β). Format: biochemical. The conditions noted are these: Table A; read-out: CK2A1 (CK2α/β) (IC50).
As for `CCNc1nc(Nc2cc(C#N)cc(C3CN(C[C@H](C)O)C3)c2Cl)nn2c(C#N)cnc12` [Example 368, (S)-2-((2-chloro-5-cyano-3-(1-(2-hydroxypropyl)azetidin-3-yl)phenyl)amino)-4-(ethylamino)imidazo[2,1-f][1,2,4]triazine-7-carbonitrile], the IC50 was determined as 3.62 nM.

For the compound `N#Cc1cc(Nc2nc(NC3CC3)c3ncc(C#N)n3n2)c(Cl)c(N2CC[C@@H](NC(=O)OC3CN(C4COC4)C3)[C@H](O)C2)c1` (racemic) [Example 180, (+/−)-1-(oxetan-3-yl)azetidin-3-yl((3R,4R)-1-(2-chloro-5-cyano-3-((7-cyano-4-(cyclopropylamino)imidazo[2,1-f][1,2,4]triazin-2-yl)amino)phenyl)-3-hydroxypiperidin-4-yl)carbamate], the IC50 was 0.51 nM. For `CC(C)(O)C1CN(c2cc(C(F)F)cc(Nc3nc(NC4CC4)c4ncc(C#N)n4n3)c2Cl)CCO1` (racemic) [Example 280, (+/−) 2-((2-chloro-5-(difluoromethyl)-3-(2-(1-hydroxy-1-methylethyl)-4-morpholinyl)phenyl)amino)-4-(cyclopropylamino)imidazo[2,1-f][1,2,4]triazine-7-carbonitrile] the value was 2.09 nM; for `N#Cc1cnc2c(NC3CC3)nc(Nc3cc(C(N)=O)cc(N4CC(NC5COC5)C4)c3Cl)nn12` [Example 166, 4-chloro-3-((7-cyano-4-(cyclopropylamino)imidazo [2,1-f][1,2,4]triazin-2-yl)amino)-5-(3-(3-oxetanylamino)-1-azetidinyl)benzamide], 0.44 nM; for `N#Cc1cnc2c(NC3CC3)nc(Nc3cc(C(F)F)cc(N4CCC(C(=O)O)CC4)c3Cl)nn12` [Example 545, 1-(2-chloro-3-((7-cyano-4-(cyclopropylamino)imidazo[2,1-f][1,2,4]triazin-2-yl)amino)-5-(difluoromethyl)phenyl)piperidine-4-carboxylic acid], 1.55 nM. For `CN1CCC2(CCN(c3cc(C#N)cc(Nc4nc(NC5CC5)c5ncc(C#N)n5n4)c3Cl)CC2)C1` (racemic) [Example 27, (+/−) 2-((2-chloro-5-cyano-3-(2-methyl-2,8-diazaspiro[4.5]dec-8-yl)phenyl)amino)-4-(cyclopropylamino)imidazo [2,1-f][1,2,4]triazine-7-carbonitrile], the IC50 was determined as 0.87 nM. For `CS(=O)(=O)N1CCN(CC(O)c2cc(C#N)cc(Nc3nc(NC4CC4)c4ncc(C#N)n4n3)c2Cl)CC1` (centres unmarked) [Example 687, 2-((2-chloro-5-cyano-3-(1-hydroxy-2-(4-(methylsulfonyl)piperazin-1-yl)ethyl)phenyl)amino)-4-(cyclopropylamino)imidazo[2,1-f][1,2,4]triazine-7-carbonitrile] the value was 0.99 nM; for `CC(O)CN1CC2(CCN(c3cc(C#N)cc(Nc4nc(NC5CC5)c5ncc(C#N)n5n4)c3Cl)CC2)C1` (racemic) [Example 797, (+/−)-2-((2-chloro-5-cyano-3-(2-(2-hydroxypropyl)-2,7-diazaspiro[3.5]nonan-7-yl)phenyl)amino)-4-(cyclopropylamino)imidazo[2,1-f][1,2,4]triazine-7-carbonitrile], 6.61 nM; for `CC1(C(O)c2cc(C#N)cc(Nc3nc(NC4CC4)c4ncc(C#N)n4n3)c2Cl)COC1` (centres unmarked) [Example 657, 2-((2-chloro-5-cyano-3-(hydroxy(3-methyloxetan-3-yl)methyl)phenyl)amino)-4-(cyclopropylamino)imidazo[2,1-f][1,2,4]triazine-7-carbonitrile], 4.2 nM. For `CCNc1nc(Nc2cc(C#N)cc(N3CC[C@@H]4[C@@H](C3)OC(=O)N4C3COC3)c2Cl)nn2c(C#N)cnc12` (racemic) [Example 838, (+/−)-2-((2-chloro-5-cyano-3-((3aR,7aR)-1-(oxetan-3-yl)-2-oxohexahydrooxazolo[5,4-c]pyridin-5(2H)-yl)phenyl)amino)-4-(ethylamino)imidazo[2,1-f][1,2,4]triazine-7-carbonitrile] the value was 0.54 nM; for `CCNc1nc(Nc2cc(C#N)cc(N3CC[C@@H](NC(=O)OC)[C@H](OC(=O)CNC(=O)[C@H](C)N)C3)c2Cl)nn2c(C#N)cnc12` [Example 821, (3R,4R)-1-(2-chloro-5-cyano-3-((7-cyano-4-(ethylamino)imidazo[2,1-f][1,2,4]triazin-2-yl)amino)phenyl)-4-((methoxycarbonyl)amino)piperidin-3-yl 2-((S)-2-aminopropanamido)acetate hydrochloride], 2.72 nM. As for `CC(C)(N)C(=O)N1CCC(c2cc(C#N)cc(Nc3nc(NC4CC4)c4ncc(C#N)n4n3)c2Cl)CC1` [Example 239, 2-((2-chloro-5-cyano-3-(1-(2-methylalanyl)-4-piperidinyl)phenyl)amino)-4-(cyclopropylamino)imidazo[2,1-f][1,2,4]triazine-7-carbonitrile], the IC50 was determined as 0.49 nM.

Consider `N#Cc1cc(Nc2nc(NC3CC3)c3ncc(C#N)n3n2)c(Cl)c(N2CCN(C3CCCC3F)CC2)c1` (centres unmarked) [Example 587, 2-({2-chloro-5-cyano-3-[4-(2-fluorocyclopentyl)piperazin-1-yl]phenyl}amino)-4-(cyclopropylamino)imidazo [2,1-f][1,2,4]triazine-7-carbonitrile], for which the IC50 was determined as 8.02 nM. For `N#Cc1cc(Nc2nc(NC3CC3)c3ncc(C#N)n3n2)c(Cl)c(N2CCC3(CC2)CN(CC(N)=O)C3)c1` [Example 800, 2-(7-(2-chloro-5-cyano-3-((7-cyano-4-(cyclopropylamino)imidazo[2,1-f][1,2,4]triazin-2-yl)amino)phenyl)-2,7-diazaspiro[3.5]nonan-2-yl)acetamide] the value was 2.14 nM; for `CCNc1nc(Nc2cc(C#N)cc(N3CC[C@@H](NC(=O)OC)[C@H](N(C)CC(C)(C)O)C3)c2Cl)nn2c(C#N)cnc12` [Example 770, methyl N-[(3R,4R)-1-(2-chloro-5-cyano-3-{[7-cyano-4-(ethylamino)imidazo[2,1-f][1,2,4]triazin-2-yl]amino}phenyl)-3-[(2-hydroxy-2-methylpropyl)(methyl)amino]piperidin-4-yl] carbamate], 9 nM; for `N#Cc1cc(Nc2nc(NC3CC3)c3ncc(C#N)n3n2)c(Cl)c(N2CCN(C3CN(C(=O)C4CCC(O)CC4)C3)CC2)c1` (centres unmarked) [Example 509, 2-[(2-chloro-5-cyano-3-{4-[1-(4-hydroxycyclohexane-carbonyl)azetidin-3-yl]piperazin-1-yl}phenyl)amino]-4-(cyclopropylamino)imidazo[2,1-f][1,2,4]triazine-7-carbonitrile], 5.11 nM. Turning to `N#Cc1cc(Nc2nc(NC3CC3)c3ncc(C#N)n3n2)c(Cl)c(N2CCN(C3CN(C(=O)C4CC4)C3)CC2)c1` [Example 485, 2-({2-chloro-5-cyano-3-[4-(1-cyclopropanecarbonyl-azetidin-3-yl)piperazin-1-yl]phenyl}amino)-4-(cyclopropylamino)imidazo[2,1-f][1,2,4]triazine-7-carbonitrile], the IC50 is 0.77 nM. Consider `CC1(N2CCC(Oc3cc(C#N)cc(Nc4nc(NC5CC5)c5ncc(C#N)n5n4)c3Cl)CC2)COC1` [Example 427, 2-((2-chloro-5-cyano-3-((1-(3-methyloxetan-3-yl)piperidin-4-yl)oxy)phenyl)amino)-4-(cyclopropylamino)imidazo[2,1-f][1,2,4]triazine-7-carbonitrile], for which the IC50 stood at 0.78 nM. Regarding `CC(C)(O)[C@@H]1CN(c2cc(C#N)cc(Nc3nc(NC4CC4)c4ncc(C#N)n4n3)c2Cl)CCO1` [Example 37, 2-((2-chloro-5-cyano-3-((2S)-2-(1-hydroxy-1-methylethyl)-4-morpholinyl)phenyl)amino)-4-(cyclopropylamino)imidazo [2,1-f][1,2,4]triazine-7-carbonitrile], the IC50 amounted to 0.35 nM. For `CCNc1nc(Nc2cc(C#N)cc(N3CC[C@@H](NC(=O)OC)[C@H](OC(=O)[C@H](C)O)C3)c2Cl)nn2c(C#N)cnc12` [Example 341, (S)-(3R,4R)-1-(2-chloro-5-cyano-3-((7-cyano-4-(ethylamino)imidazo[2,1-f][1,2,4]triazin-2-yl)amino)phenyl)-4-((methoxycarbonyl)amino)piperidin-3-yl 2-hydroxypropanoate], the IC50 was 1 nM. For `CN1CCC2CCN(c3cc(C#N)cc(Nc4nc(NC5CC5)c5ncc(C#N)n5n4)c3Cl)CC21` (racemic) [Example 456] the value was 2.9 nM; for `N#Cc1cc(Nc2nc(NC3CC3)c3ncc(C#N)n3n2)c(Cl)c(C2CCN(C(=O)C3(O)CC3)CC2)c1` [Example 232, 2-((2-chloro-5-cyano-3-(1-((1-hydroxycyclopropyl)carbonyl)-4-piperidinyl)phenyl)amino)-4-(cyclopropylamino)imidazo[2,1-f][1,2,4]triazine-7-carbonitrile], 0.62 nM; for `CC(=O)N1CCOC(c2cc(C#N)cc(Nc3nc(NC4CC4)c4ncc(C#N)n4n3)c2Cl)C1` (racemic) [Example 695, (+/−)-2-((3-(4-acetylmorpholin-2-yl)-2-chloro-5-cyanophenyl)amino)-4-(cyclopropylamino)imidazo[2,1-f][1,2,4]triazine-7-carbonitrile], 3.7 nM.

As for `COC(=O)N[C@H]1CCN(c2cc(C#N)cc(Nc3nc(NC4CC4)c4ncc(C#N)n4n3)c2Cl)C[C@@H]1NC1COC1` (single isomer, unassigned) [Example 744], the IC50 was 1.12 nM. For `CN1CCC2CN(c3cc(C#N)cc(Nc4nc(NC5CC5)c5ncc(C#N)n5n4)c3Cl)CCC21` (centres unmarked) [Example 443, 2-((2-chloro-5-cyano-3-(1-methylhexahydro-1H-pyrrolo[3,2-c]pyridin-5(6H)-yl)phenyl)amino)-4-(cyclopropylamino)imidazo[2,1-f][1,2,4]triazine-7-carbonitrile] the value was 2.93 nM; for `N#Cc1cc(Nc2nc(NC3CC3)c3ncc(C#N)n3n2)c(Cl)c(N2CCC(C3COC3)CC2)c1` [Example 525, 2-((2-chloro-5-cyano-3-(4-(oxetan-3-yl)piperidin-1-yl)phenyl)amino)-4-(cyclopropylamino)imidazo[2,1-f][1,2,4]triazine-7-carbonitrile], 3.2 nM.
